Patent US7109174B2, “Anticonvulsant derivatives useful for preventing the development of type II diabetes mellitus and syndrome X” (Ortho-McNeil Pharmaceutical, Inc., priority 2000, dated 2006)

Key:
[1] = test system: male Zucker diabetic fatty (ZDF/Gmi-Fa) rats; experiment: Plasma glucose, triglycerides and body weight change in male Zucker diabetic fatty rats, orally dosed for 14 days; assay type: in vivo; conditions: for Body Weight Change / Plasma Glucose Levels Plasma Conc. / Plasma Triglyceride Levels Plasma Conc.: ± sem
Description: Six week old male Zucker diabetic fatty (ZDF/Gmi-Fa) rats were purchased from Genetic Models, Inc. Indianapolis, Ind. The rats were housed in groups of four in hanging metal cages, at an ambient temperature of 68–72° F., on a 12 hour-12 hour light-dark schedule and given access to water and food ad libitum. Lean rats (ZDF/GMI−+/+or +/fa) were used as normal, non-diabetic controls. The diet was comprised of LabDiet 5008 breeding formula (PMI Nutrition Int'l, Brentwood, Mo.). The vehicle, used as a reference and for test compounds, was 0.5% methylcellulose dissolved in water. The compounds were either fully dissolved or uniformly suspended in the vehicle when administered to the […]. The rats were randomly separated into four groups of eight. The groups were as follows: one vehicle control group and three groups that each received one of three doses of TPM (30, 100, or 300 mg/kg, respectively). Topiramate or vehicle was administered orally by gavage once a day, for 14 consecutive days, during the 8th hour of the light portion of the light-dark cycle. At the start of the study, the rats were bled through a tail vein and plasma glucose and triglyceride levels were determined. Between 18 and 24 hours after the last dose was administered, blood samples were again taken via tail clip on day 1 (fed animals) and day 14 (fed animals). The plasma was collected into 2 mL heparinized snap-top polypropylene tubes, then placed in ice. Plasma was separated from blood cells by centrifugation (20 minutes at 1800 g). For samples not assayed immediately, the plasma was transferred into 96-well plates and frozen at −70° C. Body weights for the animals were determined at the start of the study and again after 14 days oral dosing. Glucose and triglycerides were assayed using standard procedures for blood clinical laboratories. Specifically, the samples were analyzed using an automated Hitachi 717 autoanalyzer (Boehringer Mannheim/Hitachi 717 Autoanalyzer, Boehringer Mannheim Laboratory Systems Division, Indianapolis, Ind.). A statistical analysis of data for the drug-treated groups compared to data for the vehicle group was performed using the one-way analysis of variance (ANOVA) with Dunnett's Multiple Comparisons test. Following the procedure described above, the effect of topiramate on plasma glucose, triglyceride levels and body weight changes was determined for male Zucker rats, orally dosed for 14 days, with results as listed in Table 6–8. The abbreviation N represents the number of animals per study group.

ob/ob mice = ob/ob mice first study: topiramate in food for 120 days; plasma glucose, insulin, triglycerides, body weight; assay type: in vivo; conditions: for Blood concentration Glucose / Blood concentration Insulin / Blood concentration Triglycerides: mean ± SEM, N 10
Text: It is known that ob/ob mice when allowed to eat ad libitum, develop abnormally high blood levels of insulin (hyperinsulinemia), glucose (hyperglycemia), lesions of the skin, and a high level of glycosylated hemoglobin, all of which are hallmark signs of Type II diabetes mellitus (R. R. HENRY, Ann. Intern. Med. 1996, 124, 97–103; G. W. EDELSON, Clin. Podiatr. Med. Surg. 1998, 15, 41–48; P. R. JOHNSON, M. R. GREENWOOD, B. A. HORWITZ and J. S. STERN, Annu. Rev. Nutr. 1991, 11, 325–353). Based on this knowledge of the ob/ob mouse model, two studies were designed to determine the effect of compounds of formula (I) in these mice models.
In the first study, a uniform population of mice was divided into three groups; in one group of control mice no topiramate was added to the food for the entire 120-day study period. In a second group topiramate was added to the food in amounts sufficient to give a daily dose of 20 mg/kg for 84 days, then a daily dose of 180 mg/kg for 36 days. A third group received a daily dose of 60 mg/kg for the entire 120 days. After completion of the 120-day period, the mice were sacrificed and blood was obtained and prepared for subsequent analyses of glucose, insulin and triglycerides in plasma.

[2] = 30 mg/kg oral once a day, 14 days
[3] = 100 mg/kg oral once a day, 14 days
[4] = 100 mg/kg oral once a day, 14 days, P < 0.01
[5] = 300 mg/kg oral once a day, 14 days
[6] = 300 mg/kg oral once a day, 14 days, P < 0.01
[7] = TPM 1: 20 mg/kg/day 84 days then 180 mg/kg/day 36 days in food
[8] = TPM 2: 60 mg/kg/day 120 days in food

With `CC1(C)O[C@@H]2[C@@H](CO[C@@]3(COS(N)(=O)=O)OC(C)(C)O[C@@H]23)O1` [Topiramate, 2,3:4,5-bis-O-(1-methylethylidene)-β-D-fructopyranose sulfamate] the “Plasma Glucose % Change from Diabetic Control” value (shortened to “Plasma Glucose % Change”) [1, 2] was −24.9%, the “Plasma Glucose % of Diabetic Control” value [1, 2] was 75.1% and the “Plasma Triglyceride % Change from Diabetic Control” value (“Plasma Triglyceride % Change” for short) [1, 2] was −20.4%. For the same compound, the “Plasma Triglyceride % of Diabetic Control” value [1, 2] was 79.6%, the “Body Weight Change” value [1, 2] was “+95.5 ± 7.2 Gms” and the “Plasma Glucose Levels Plasma Conc.” value ([1]; 30 mg/kg oral once a day, 14 days, P < 0.01) was 247.4 ± 17.8 mg/dL. For the same compound, the “Plasma Triglyceride Levels Plasma Conc.” value ([1]; 30 mg/kg oral once a day, 14 days, P < 0.05) was 482.4 ± 10.5 mg/dL, the “body weight change accompanying the reduction in blood glucose” value ([1]; 30 mg/kg/day) was “without significant body weight change” and the “decrease in plasma triglyceride levels” value ([1]; 30 mg/kg/day, P<0.05) was 20%. The “Plasma Glucose % Change” value [1, 3] was −47.5%, the “Plasma Glucose % of Diabetic Control” value [1, 3] was 52.5% and the “Plasma Triglyceride % Change” value [1, 3] was −17.7%. For the same compound, the “Plasma Triglyceride % of Diabetic Control” value [1, 3] was 82.3%, the “Plasma Triglyceride Levels Plasma Conc.” value [1, 3] was 498.6 ± 58.8 mg/dL and the “Body Weight Change” value [1, 4] was “+75.7 ± 2.7 (P < 0.01) Gms”. For the same compound, the “Plasma Glucose Levels Plasma Conc.” value [1, 4] was 170.3 ± 14.7 mg/dL, the “Plasma Glucose % Change” value [1, 5] was −49.5% and the “Plasma Glucose % of Diabetic Control” value [1, 5] was 50.5%. The “Plasma Triglyceride % Change” value [1, 5] was −30.2%, the “Plasma Triglyceride % of Diabetic Control” value [1, 5] was 69.8% and the “Body Weight Change” value [1, 6] was “+64.4 ± 6.0 (P < 0.01) Gms”. For the same compound, the “Plasma Glucose Levels Plasma Conc.” value [1, 6] was 166.4 ± 11.1 mg/dL, the “Plasma Triglyceride Levels Plasma Conc.” value [1, 6] was 423.0 ± 33.6 mg/dL and the “decrease in plasma triglyceride levels” value ([1]; 300 mg/kg/day, P<0.01) was 30%. The “decrease in blood glucose levels” value ([1]; 30 to 300 mg/kg, 14 days, P<0.01) was 25–50%, the “Glucose percentage difference versus control” value (ob/ob mice; [7]) was −39% and the “Insulin percentage difference versus control” value (ob/ob mice; [7]) was −37%. For the same compound, the “Triglycerides percentage difference versus control” value (ob/ob mice; [7]) was −46%, the “Blood concentration Glucose” value (ob/ob mice; [7]) was 183 ± 33 mg/dL and the “Blood concentration Insulin” value (ob/ob mice; [7]) was 6.4 ± 0.7 ng/mL. The “Blood concentration Triglycerides” value (ob/ob mice; [7]) was 103 ± 5 mg/dL, the “Glucose percentage difference versus control” value (ob/ob mice; [8]) was −41% and the “Insulin percentage difference versus control” value (ob/ob mice; [8]) was −21%. For the same compound, the “Triglycerides percentage difference versus control” value (ob/ob mice; [8]) was −41%, the “Blood concentration Glucose” value (ob/ob mice; [8]) was 179 ± 11 mg/dL and the “Blood concentration Insulin” value (ob/ob mice; [8]) was 8.0 ± 0.9 ng/mL. The “Blood concentration Triglycerides” value (ob/ob mice; [8]) was 113 ± 8 mg/dL, the body weight (ob/ob mice; TPM 2 group (60 mg/kg/day), day 119) was 62.2 ± 1.2 g and the body weight (ob/ob mice; TPM 2 group (60 mg/kg/day), day −1 (beginning of administration)) was 48.4 ± 0.9 g. For the same compound, the “Body weight gain compared with control” value (ob/ob mice; TPM 2 group (60 mg/kg/day), day −1 to day 119) was “Body weight gain for the control and TPM 2 groups from day −1 to day 119 was also similar”.
